Results: patent publication US11859203B2, “Cell culture methods” (UCB BIOPHARMA SRL, priority 2017, dated 2024)

Experiments:
Type in all cases: cell-based, Chinese Hamster
[1] = test system: CHO-DG44 cells producing a full-length antibody, mAb1; test: Fed-batch shake flask culture with cysteine in Feed replaced by cysteine/cystine derivatives (Example 1)
Procedure: The ability of cysteine/cystine derivatives to reduce color and acidic species of an antibody preparation produced recombinantly by host cells grown in cell culture was evaluated. For this experiment, a scale-down model in shake flask was used. CHO-DG44 cells producing a full-length antibody, mAb1, were inoculated in 100 mL of basal media at a seeding density of 0.35×10^6 cells/mL mAb1 comprises a light chain having the sequence as defined in SEQ ID NO: 9 and a heavy chain having the sequence as defined in SEQ ID NO: 10.
The shake flask vessels were 250 mL shake flasks (corning) disposed in an agitated incubator (Infors) protected from light. The cells were cultivated for 14 days at 36.8° C. with 80% humidity. The cell cultures were agitated at 140 rpm at the beginning of the process. The agitation was increased during the process progressively to reach 250 rpm to maintain a DO % at 40% in the shake flask, as is it done in a 2 L bioreactor process. The cell culture was maintained at pH 7.0±0.2 by decreasing the CO2 in the incubator from 5% before the process to 2% during the process. Cells were cultured in a fed-batch mode with bolus addition of Feed every day of culture. The basal media contained 0.04 mmol/L of cysteine+0.38 mmol/L of cystine. The Feed contained 153.3 mmol/L of cystine. Over the entire 14-day production phase, the total volume of Feed added corresponded to 4.47% (v/v) of the culture start volume.
The cysteine present in the Feed was replaced by different cysteine and cystine derivatives at different percentages as presented in Table 1. Osmolality was daily monitored using an osmometer from Advanced Instruments. Off line pH, dissolved O2 and dissolved CO2 were daily monitored using a model BioProfile pHOx® blood gas analyser (Nova Biomedical Corporation, Waltham, Mass.). Metabolites concentrations were daily determined using a CedexBioHT system (Roche). Viable cell concentration and cell viability were measured daily using a ViCell automated cell counter (Beckman Coulter). The cell culture fluid was collected daily by centrifuging 1 mL of cell culture fluid for determination of antibody titer using protein A HPLC (Waters). At the end of the 14 days of culture, the cell culture fluid was harvested by centrifugation. The supernatant was then purified using a protein-A affinity chromatography (MabSelect Sure, GE). […] The relative percentage of main, acidic (APG for Acidic Peak Group) and basic (BPG for Basic Peak Group) isoforms of the purified mAb was determined by Imaged Capillary Electrophoresis (PROTEINSIMPLE iCE3). […]
Color intensity of the concentrated antibody composition was measured in the concentrated protein A eluates using a spectrophotometer by transmission (UltrascanPro) and compared to the CIE (commission internationale de l'éclairage) scale. […]

[2] = test system: cell line 1; test: Reproducibility in 2 L bioreactor, cell line 1, average of data sets 1 and 2 (Example 4); conditions: for cell growth (VCC) compared to control: from day 9, 2 L bioreactor, data sets 1 and 2
Procedure: (§1) The ability of cysteine/cystine derivatives to reduce color and acidic species of a recombinant protein preparation produced in cell culture was evaluated in a bioreactor for two cell lines. This model is more representative of the large-scale production than the shake flask due to the geometry and additional control. CHO-DG44 cells from cell line 1 and 2 were inoculated in 1300 mL of basal media at a seeding density of 0.35×10^6 cells/mL in 2 L stirred bioreactor (Sartorius). The cells were cultivated during 14 days in fed-batch mode. The cell cultures were agitated at 280 rpm and the DO was maintained at 40%. The cell culture was maintained at pH 7.0±0.2 with an automatic CO2 sparging regulation. Cells were cultured in a fed-batch mode with bolus addition of Feed every day of culture. The basal media contained 0.04 mmol/L of cysteine+0.38 mmol/L of cystine. The Feed contained 153.3 mmol/L of cystine. Over the entire 14-day production phase, the total volume of Feed added corresponded to 5.7% (w/w) of the culture start volume for cell line 1 and to 3.1% (w/w) of the culture start volume for cell line 2.
(§2) The cysteine present in the Feed was replaced by different cysteine- and cystine derivatives at different percentages as presented in Table 2. A condition with only 50% of cysteine was added to test whether the improvements observed were due to the cysteine derivative or to the reduction of cysteine only. Osmolality was daily monitored using an osmometer from Advanced instrument. Off line pH, dissolved O2 and dissolved CO2 were daily monitored using a Nova Biomedical Phox (Nova biomedical). Metabolites concentrations were daily determined using a CedexBioHT system (Roche). Viable cell concentration and cell viability were measured daily using a ViCell automated cell counter (Beckman Coulter). The cell culture fluid was collected daily by centrifuging 1 mL of cell culture fluid for determination of antibody titer by HPLC prot A (waters) or using protein-L Octet measurement (Pall). At the end of the 14 days of culture, the cell culture fluid was harvested by centrifugation. The supernatant was then purified using a protein-A or L affinity chromatography (GE). The protein-A or L eluates were used for the molecular weight determination using UPLC size exclusion (Waters) and for the charge variants determination using isocapillary focusing (PROTEINSIMPLE iCE3). Another part of the protein-A eluates (only from cell line 1) was concentrated to 40 mg/mL using Amicon centricon centrifugal filter devices (Millipore). Color intensity of the concentrated antibody composition was measured in the concentrated protein A eluates using a spectrophotometer by transmission (UltrascanPro) and compared to the CIE (commission internationale de l'éclairage) scale. The numerical results were normalized to the concentration of 40 mg/mL.
The reproducibility of the results was evaluated in bioreactor with cell line 1. The experiments of Example 3 were repeated with an additional control and a bioreactor with 50% S-sulfocysteine 50% Cysteine Feed. The data from the two experiments were analyzed to confirm the effect previously observed with cysteine/cystine derivatives.

[3] = test system: CHO-DG44 cells from cell line 1; test: Fed-batch 2 L bioreactor culture with cysteine/cystine derivatives, cell line 1 (Example 3); conditions: 50% replacement, cell line 1, 2 L bioreactor; for decrease of the b value level (color intensity) compared to control: 40 mg/mL
Procedure: as §1, §2

[4] = test system: CHO-DG44 cells from cell line 2; test: Fed-batch 2 L bioreactor culture with cysteine/cystine derivatives, cell line 2 (Example 3); conditions: 50% replacement; cell line 2, 2 L bioreactor
Procedure: as §1, §2

[5] = test system: CHO-DG44 cells from cell line 1; test: Fed-batch Ambr15 mini bioreactor culture, different replacement levels, cell line 1 (Example 5); conditions: for cell growth: 90% of cysteine/cystine in Feed replaced, Ambr15
Procedure: We tested different concentrations of cysteine/cystine derivatives on the improvement on the APG level of a recombinant protein preparation produced in cell culture cultivated in mini bioreactors. CHO-DG44 cells from cell line 1 were inoculated in 12 mL basal media at a seeding density of 0.35×10^6 cells/mL in Ambr15 bioreactors (Sartorius). The cells were cultivated in fed-batch mode during 14 days. The DO was maintained at 40% and the pH was maintained 7.0±0.2 with an automatic CO2 sparging regulation. Viable cell concentration and cell viability were measured daily using a ViCell automated cell counter (Beckman Coulter). Cells were cultured in a fed-batch mode with a daily bolus addition of Feed. The basal media contained 0.04 mmol/L cysteine+0.38 mmol/L cystine. The Feed contained 153.3 mmol/L of cystine. Over the entire 14-day production phase, the total volume of added Feed corresponded to 4.7% (v/v) of the culture start volume.
Different percentages of cysteine present in the Feed was replaced by different cysteine- and cystine analogs. Table 4 provides an overview of different percentages tested and their equivalence in molar ratio relative to cysteine or cystine. E.g. for N-Acetyl-L-cysteine 10% means that 10% molar amount of cysteine equivalent has been replaced by 10% molar amount of N-Acetyl-L-cysteine; for N,N′-Diacetyl-L-cystine, 10% means that 10 molar amount of cystine equivalent has been replaced with 10% molar amount of N,N′-Diacetyl-L-cystine. At the end of the 14 days of culture, the cell culture fluid was harvested by centrifugation. The supernatant was then purified using a protein-A affinity chromatography (GE). The protein-A eluates were used for the charge variants determination using isocapillary focusing (PROTEINSIMPLE iCE3).

[6] = 50% replacement, compared to 50% cysteine feed
[7] = 50% replacement, data sets 1 and 2 average

Compound | decrease of b*value (color intensity) of the concentrated protein-A eluate compared to control ([1]; 50% replacement, day 14, eluate normalized to 40 mg/mL) [%] | decrease on acidic variants level compared to control ([1]; 50% replacement, day 14, iCE3) [%] | specific productivity [2, 6] | average decrease of b value level (color intensity) compared to control [2, 7] [%] | decrease in antibody titer compared to the controls average [2, 7] | titer loss due to cysteine reduction in feed compensated ([2]; compared to 50% cysteine feed) [%] | decrease of acidic species level compared to control [3] [%] | decrease of antibody titer compared to control [3] | main species level [3] | decrease of the b value level (color intensity) compared to control [3] [%] | decrease of acidic species level compared to control [4] [%] | main species level [4] | acidic species level with respect to the control ([5]; 10-90% replacement) | cell growth [5] | main species level [2, 7] | cell growth (VCC) compared to control ([2]; 50% replacement) | main charge species level with respect to the control ([5]; 10-90% replacement) | maximum reduction of acidic species level with respect to the control ([5]; with the increase of the percentage of replacement (10-90%)) [%] | maximum viable cell concentration ([1]; 50% of cysteine in Feed replaced) | cell growth (viable cell concentration) compared to control ([1]; 100% of cysteine in Feed replaced by derivative, shake flask, 14 days)
COC(=O)[C@H](CSSC[C@H](NC(C)=O)C(=O)OC)NC(C)=O [N,N′-diacetyl-L-cystine dimethylester, N,N′-diacetyl-L-cystine-dimethylester] | 21.2 | 24.8 | increase of the specific productivity | 30 | less than 5% | 5 | 15 | less than 5% | increase of main species | 25 | 13 | increase of main species | decrease of the acidic species level | Inhibition of the growth | – | – | – | – | – | –
CC(=O)N[C@@H](CSSC[C@H](NC(C)=O)C(=O)O)C(=O)O [N,N′-diacetyl-L-cystine, N,N′-Diacetyl-L-cystine] | – | – | did not impact the productivity | 14 | 10% | – | 5 | – | increase of main species | 2.5 | 8 | increase of main species | – | Inhibition of the growth | increase of main species | higher VCCs than the control conditions | positive difference with respect to the control | 27.5 | – | –
N[C@@H](CSS(=O)(=O)O)C(=O)O [S-sulfocysteine, S-Sulfocysteine, reference compound] | – | – | not to a specific impact | 5 | 25% | – | – | – | – | – | – | – | – | – | – | higher cell death than the control | – | – | 2×10^6 cells/mL | cells rapidly died on day 7
